Values joined by “and” are separate entries in the source; they are usually repeats but may differ in a detail not shown here. Equal values may be shown once.
Assays:
[1] = system: Panc-1 human pancreas tumors (oncogenic K-ras); assay: Panc-1 mouse xenograft model, tumor growth (Example 1); format: in vivo, female nude mice; settings: Panc-1 xenograft; FK228 IV Q4Dx3 and/or gemcitabine IP Q3Dx4; vs vehicle control
Procedure: In this study, female nude mice were implanted subcutaneously (SC) by trocar with Panc-1 tumor fragments harvested from SC growing tumors in nude mice hosts. […] The day of treatment initiation was specified as Day 1. Vehicle control and FK228 were administered intravenously on a […] schedule (Days 1, 5, and 9). Gemcitabine was administered by an intraperitoneal injection on a […] schedule (Days 1, 4, 7, 10). Tumors were measured by Vernier calipers twice weekly.

c-Myc = assay: Tissue biomarker immunoblotting of PANC-1 xenograft tumors: c-Myc; format: in vivo; settings: PANC-1 tumors at study completion; FK228 5 mg/kg Q4Dx3, gemcitabine 80 mg/kg Q3Dx4, or both; actin-normalized vs control
Procedure: (§1) Specimen Collection: […] Tumor xenograft tissue and serum specimens were obtained from in vivo studies performed by the Preclinical Research Laboratory at the completion of the experiments. […] Serum was obtained from whole blood and stored frozen at -70° C. Tissue Biomarkers: Tumor levels of acetylated histone-4, histone-4, […] were quantified by immunoblotting as described. Briefly, frozen tissue was pulverized under liquid nitrogen and homogenized in hypotonic lysis buffer. Small aliquots of the extracts were used for analysis of protein concentration by micro-BCA assay with bovine serum albumin as a protein standard. An equal amount of extracts containing about 20-50 μg protein was electrophoresed in SDS polyacrylamide gels. Proteins were transferred to ImmunoBlot PVDF membrane and were probed with appropriate primary and secondary antibodies. The chemiluminescence signal was captured by autoradiography, quantified by densitometry and expressed as a ratio of actin in each sample lane. For each biomarker, means and standard errors were calculated in each treatment group. […] Following quantitative analysis of biomarker levels in each sample, the results were normalized for b-actin and expressed as percentages of untreated controls. […]

acetylated histone 3 = assay: Tissue biomarker immunoblotting of PANC-1 xenograft tumors: acetylated histone 3; format: in vivo; settings: PANC-1 tumors at study completion; FK228 5 mg/kg Q4Dx3, gemcitabine 80 mg/kg Q3Dx4, or both
Procedure: as §1

acetylated histone 4 = assay: Tissue biomarker immunoblotting of PANC-1 xenograft tumors: acetylated histone 4; format: in vivo; settings: PANC-1 tumors at study completion; FK228 5 mg/kg Q4Dx3, gemcitabine 80 mg/kg Q3Dx4, or both
Procedure: as §1

[2] = system: BxPC-3 human pancreatic tumor xenograft; assay: BxPC-3 human pancreatic tumor xenograft tumor growth inhibition study (Example 3); format: in vivo, female nude mice (nu/nu); settings: for % TGI / Final tumor volume mean ± SEM: Day 29
Source text: (Madison, Wis.). […] Tumor measurements were converted to cubic millimeter tumor volume using the formula^(5): […] TGI values for each treatment group are reported at study completion; these calculations are based on the final study day. […] Individual mice lacking palpable tumors were classified as undergoing complete regression (CR). Animals experiencing partial or complete tumor regressions were censored from TGI calculations. However, data from these animals was included in statistical analysis calculations. In addition, weight data from these animals was included in daily and final group calculations. Tumor Necrosis-Degree of tumor necrosis was rated at each tumor measurement using the following arbitrary index: […]

[3] = Animal weight and drug toxicity, BxPC-3 study
Source text: Model Information—Female nude mice (nu/nu) between 5 and 6 weeks of age weighing approximately 20 grams were obtained from Harlan, Inc. (Madison, Wis.). PANC-1, obtained from the ATCC, is a pancreas tumor cell line originating from a person^(1-2). BxPC-3, obtained from the American Type Culture Collection (ATCC), is a pancreas tumor cell line originating from a person^(3-4). PANC-1 Study: Animals were implanted subcutaneously (SC) by trocar with fragments of PANC-1 harvested from SC growing tumors in nude mice hosts. When tumors grew to approximately 135 cubic millimeters (mm^3) in size (17 days following implantation, animals were pair-matched by tumor size into treatment and control groups; each treatment group contained nine mice. BxPC-3 Study: Animals were implanted subcutaneously (SC) by trocar with fragments of BxPC-3 harvested from SC growing tumors in nude mice hosts. When tumors grew to approximately 85 cubic millimeters (mm^3) in size (19 days following implantation), animals were pair-matched by tumor size into treatment and control groups; each treatment group contained nine mice. Animals in both studies were ear-tagged and followed individually throughout the experiment.
Study Design and Dosing—Initial doses were administered on Day 1 following pair-matching; both experiments were carried out as tumor growth inhibition (TGI) studies. Animals were dosed intravenously (IV) via tail vein with FK228 once every four days for three treatments (Q4Dx3) or by intraperitoneal (IP) injection with gemcitabine once every three days for four treatments (Q3Dx4), either alone or in combination, at the doses listed below (Table 1). To serve as a negative control, FK228 vehicle (2% ethanol, 8% propylene glycol, 90% 0.9% saline) was injected on a Q4Dx3 schedule.
Animal Weights—Individual and group mean weights±SD and percent weight change through Day 25 (PANC-1) or Day 29 (BxPC-3) were recorded twice weekly until study completion beginning Day 1. Final group mean weights±SD and group nadir values are reported; weight data from individual animals experiencing technical or drug-related deaths was censored from final group calculations.
Moribundity/Mortality—Animals were observed twice weekly for general moribundity and daily for mortality. Animal deaths were assessed as drug-related or technical based on factors including gross observation and weight loss; reported animal death information includes type, number, and day of death for each group.

[4] = system: transformed (H, K, N-Ras and the rat Her-2/NeuT) NIH-3T3 cells; assay: 4-day proliferation assay, transformed NIH-3T3 cell lines; format: cell-based, mouse; settings: 2 nM romidepsin
Procedure: A series of transformed NIH-3T3 cell likes were generated and a proliferation assay was performed in the presence of 2, 3, or 4 nM romidepsin. FIG. 23 illustrates the transformed morphology of the cells. FIG. 24 presents graphs of cell proliferation.

[5] = BxPC-3 study, FK228 2.5 mg/kg IV Q4Dx3
[6] = BxPC-3 study, FK228 2.5 mg/kg IV Q4Dx3, 2.5 mg/kg
[7] = BxPC-3 study, FK228 5 mg/kg IV Q4Dx3
[8] = BxPC-3 study, FK228 5 mg/kg IV Q4Dx3, 5 mg/kg

Structure (SMILES): C/C=C1\NC(=O)[C@H]2CSSCC/C=C/[C@H](CC(=O)N[C@H](C(C)C)C(=O)N2)OC(=O)[C@H](C(C)C)NC1=O [FK228, romidepsin]
- tumor growth inhibition [1]: 26%
- extent of inhibition of c-Myc expression (c-Myc): 50%
- acetylation of histone 3 (acetylated histone 3): not affected
- levels of acetylated histone 4 vs control (acetylated histone 4): over 2 fold
- % TGI [2, 5]: No TGI
- Final tumor volume mean ± SEM [2, 6]: 2440±643 mm^3
- % TGI [2, 7]: No TGI
- Final tumor volume mean ± SEM [2, 8]: 2620±238 mm^3
- Activity according to NCI standards [2, 5]: inactive
- Tumor necrosis [2, 5]: 2/9 animals reported mild tumor necrosis
- #PR/CR [2, 6]: 0/9 and 0/0
- Activity according to NCI standards [2, 7]: inactive
- Tumor necrosis [2, 7]: 2/9 animals reported mild tumor necrosis
- #PR/CR [2, 8]: 0/9 and 0/0
- calculated TGI values ([2]; BxPC-3 study, at the evaluated doses and schedules): No tumor growth inhibition
- antitumor activity (overall conclusion) ([2]; wildtype ras BxPC-3, all evaluated doses): inactive
- Final weight data % change ([3]; Day 29, FK228 2.5 mg/kg IV Q4Dx3): +10%
- Final weight data mean ± SD ([3]; Day 29, FK228 2.5 mg/kg IV Q4Dx3, 2.5 mg/kg): 25±2 G
- Final weight data % change ([3]; Day 29, FK228 5 mg/kg IV Q4Dx3): +7%
- Final weight data mean ± SD ([3]; Day 29, FK228 5 mg/kg IV Q4Dx3, 5 mg/kg): 24±1 G
- Weight nadir % change ([3]; FK228 2.5 mg/kg IV Q4Dx3): −5%
- Weight nadir day ([3]; FK228 2.5 mg/kg IV Q4Dx3): 11
- Drug deaths total ([3]; FK228 2.5 mg/kg IV Q4Dx3, 2.5 mg/kg): 0/9 and 0
- Weight nadir % change ([3]; FK228 5 mg/kg IV Q4Dx3): −15%
- Weight nadir day ([3]; FK228 5 mg/kg IV Q4Dx3): 11
- Drug deaths total ([3]; FK228 5 mg/kg IV Q4Dx3, 5 mg/kg): 0/9 and 0
- inhibition of proliferation, transformed vs untransformed cells [4]: selectively inhibited

— US9539303B2, “Treatment of Ras-expressing tumors” (Celgene Corporation, priority 2006, dated 2017)
